Results published in CN101260112A, “含噻吩并[3.2-c]吡啶的乙酰肼衍生物及其制备方法和用途” (Tianjin Institute of Pharmaceutical Research Co Ltd, priority 2008, dated 2008).

Tested on: ADP-induced platelet aggregation (ADP诱导的血小板聚集)
Assay: Effect of compounds of formula I on ADP-induced platelet aggregation (rats dosed orally, turbidimetric method)
Type: in vivo
Conditions: male Wistar rat, 10 mg/kg oral gavage, blood taken 2 h after dosing, inducer ADP (final concentration 5 μM), turbidimetry, 37℃; for inhibition at 10 mg/kg: Platelet, vs control, read-out: inhibition rate; for maximum aggregation: control 54.8±5.8

SMILES | inhibition at 10 mg/kg [%] | maximum aggregation
COc1ccc(C=NNC(=O)C(c2cccc(F)c2)N2CCc3sccc3C2)cc1 (stereo not drawn) [化合物6, α,α-[(3-氟苯基)-(4,5,6,7-四氢噻吩并[3,2-c]吡啶-5-基)]-N′-[(4-甲氧基苯基)甲叉基]乙酰肼] | 32.5 | 33.9±12.3
CC(C)=NNC(=O)C(c1ccc(Cl)cc1)N1CCc2sccc2C1 (stereo not drawn) [化合物2, α,α-[(4-氯苯基)-(4,5,6,7-四氢噻吩并[3,2-c]吡啶-5-基)]-N′-(二甲基甲叉基)乙酰肼] | 58.8 | 22.6±3.9
CCCCc1nc(Cl)c(C=NNC(=O)C(c2cccc(Cl)c2)N2CCc3sccc3C2)[nH]1 (stereo not drawn) [化合物10, α,α-[(3-氯苯基)-(4,5,6,7-四氢噻吩并[3,2-c]吡啶-5-基)]-N′-[[(2-正丁基-4-氯-咪唑-5-基)甲叉基]乙酰肼] | 39 | 42.9±12.6
O=C(NN=Cc1cccc([N+](=O)[O-])c1)C(c1ccc(Cl)c(Cl)c1)N1CCc2sccc2C1 (stereo not drawn) [化合物7, α,α-[(3,4-二氯苯基)-(4,5,6,7-四氢噻吩并[3,2-c]吡啶-5-基)]-N′-[(3-硝基苯基)甲叉基]乙酰肼] | 23.3 | 36.0±9.3
COC(=O)[C@H](c1ccccc1Cl)N1CCc2sccc2C1 [硫酸氯吡格雷, reference compound] |  | 9.1±3.5
O=C(NN=C1CCCCC1)C(c1cccc(Cl)c1)N1CCc2sccc2C1 (stereo not drawn) [化合物11, α,α-[(3-氯苯基)-(4,5,6,7-四氢噻吩并[3,2-c]吡啶-5-基)]-N′-(环己叉基)乙酰肼] | 43.1 | 31.2±12.1
O=C(NN=Cc1ccco1)C(c1cccc(F)c1)N1CCc2sccc2C1 (stereo not drawn) [化合物9, α,α-[(3-氟苯基)-(4,5,6,7-四氢噻吩并[3,2-c]吡啶-5-基)]-N′-[(呋喃-2-基)甲叉基]乙酰肼] | 28.6 | 41.0±13.4
O=C(NN=Cc1ccccc1Cl)C(c1cccc(Cl)c1)N1CCc2sccc2C1 (stereo not drawn) [化合物3, α,α-[(3-氯苯基)-(4,5,6,7-四氢噻吩并[3,2-c]吡啶-5-基)]-N′-[(2-氯苯基)甲叉基]乙酰肼] | 18.2 | 44.8±11.1
O=C(NN=Cc1ccccc1O)C(c1cccc(F)c1)N1CCc2sccc2C1 (stereo not drawn) [化合物5, α,α-[(3-氟苯基)-(4,5,6,7-四氢噻吩并[3,2-c]吡啶-5-基)]-N′-[(2-羟基苯基)甲叉基]乙酰肼] | 33.5 | 38.7±10.6
Cc1ccc(C=NNC(=O)C(c2ccc(Cl)cc2)N2CCc3sccc3C2)cc1 (stereo not drawn) [化合物4, α,α-[(4-氯苯基)-(4,5,6,7-四氢噻吩并[3,2-c]吡啶-5-基)]-N′-[(4-甲基苯基)甲叉基]乙酰肼] | 34.3 | 36.0±6.9
O=C(NN=Cc1ccc(-c2ccc(Cl)cc2)o1)C(c1cccc(Cl)c1)N1CCc2sccc2C1 (stereo not drawn) [化合物8, α,α-[(3-氯苯基)-(4,5,6,7-四氢噻吩并[3,2-c]吡啶-5-基)]-N′-[[5-(4-氯苯)呋喃-2-基]甲叉基]乙酰肼] | 64.4 | 38.7±10.9
O=C(NN=C1CCCc2ccccc21)C(c1ccc(Cl)cc1)N1CCc2sccc2C1 (stereo not drawn) [化合物12, α,α-[(4-氯苯基)-(4,5,6,7-四氢噻吩并[3,2-c]吡啶-5-基)]-N′-(α-四氢萘叉基)乙酰肼] | 35.3 | 36.2±7.4
NNC(=O)C(c1ccc(F)cc1)N1CCc2sccc2C1 (stereo not drawn) [化合物1, α,α-[(4-氟苯基)-(4,5,6,7-四氢噻吩并[3,2-c]吡啶-5-基)]乙酰肼] | 48.2 | 28.4±8.1
